The source made the active and inactive calls. Unless noted, the rule behind the calls is not given here.
Assays:
[1] = Ratio of IC50 for neurotoxicity against rat cortical neuron assessed as inhibition of valid neuron count by ArrayScan analysis to IC50 for wild type human dopamine transporter expressed in HEK293 cells
[2] = Plasma concentration in Sprague-Dawley rat at 7.5 mg/kg, ip compound dissolved in 40% Kolliphor-EL in water measured after 10 hrs by LC-MS/MS analysis; format: ADME, organism-based
[3] = tested on: Rattus norvegicus; assay: Increase in extracellular dopamine level in Sprague-Dawley rat nucleus accumbens in brain at 10 mg/kg, ip measured after 50 mins by RP-HPLC analysis based microdialysis method relative to control; format: functional
[4] = Cardiotoxicity in human Cor.4U hiPSC-CM cells assessed as effect on action potential shape at 10 uM measured after 30 mins by FluoVolt dye based fluorescence assay; format: toxicity; conditions: 0.5 h
[5] = Drug level in Sprague-Dawley rat brain at 7.5 mg/kg, ip compound dissolved in 40% Kolliphor-EL in water measured after 1 hr by LC-MS/MS analysis; format: ADME, organism-based; conditions: read-out: Ct
[6] = target: T1, Sodium-dependent dopamine transporter (Homo sapiens, UniProt Q01959); assay: Inhibition of wild type human dopamine transporter expressed in HEK293 cells assessed as inhibition of [3H]dopamine reuptake preincubated for 5 mins followed by [3H]dopamine addition and measured after 1 min by liquid scintillation analysis; format: cell-based; conditions: read-out: IC50
T1 sequence (Q01959 whole entry): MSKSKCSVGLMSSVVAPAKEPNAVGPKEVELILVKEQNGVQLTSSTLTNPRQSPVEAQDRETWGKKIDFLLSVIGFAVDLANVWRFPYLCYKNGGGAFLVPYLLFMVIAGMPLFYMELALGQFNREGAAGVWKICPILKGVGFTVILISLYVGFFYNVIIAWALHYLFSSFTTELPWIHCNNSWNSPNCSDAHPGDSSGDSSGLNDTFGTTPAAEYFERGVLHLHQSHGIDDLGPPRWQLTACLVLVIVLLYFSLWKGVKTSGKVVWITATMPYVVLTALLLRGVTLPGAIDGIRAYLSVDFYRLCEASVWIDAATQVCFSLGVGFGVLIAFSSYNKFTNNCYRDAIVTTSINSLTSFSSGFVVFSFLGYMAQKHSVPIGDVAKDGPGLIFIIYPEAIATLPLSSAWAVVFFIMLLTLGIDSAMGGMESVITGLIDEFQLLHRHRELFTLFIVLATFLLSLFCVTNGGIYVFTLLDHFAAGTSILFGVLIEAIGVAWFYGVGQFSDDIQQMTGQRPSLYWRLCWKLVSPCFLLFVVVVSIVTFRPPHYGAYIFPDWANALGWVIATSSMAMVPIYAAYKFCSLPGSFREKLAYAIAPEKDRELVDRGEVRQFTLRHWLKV

[7] = target: Sodium-dependent serotonin transporter (Homo sapiens, UniProt P31645); format: cell-based, HEK293; conditions: hek293
Chain of Sodium-dependent serotonin transporter (P31645 whole entry): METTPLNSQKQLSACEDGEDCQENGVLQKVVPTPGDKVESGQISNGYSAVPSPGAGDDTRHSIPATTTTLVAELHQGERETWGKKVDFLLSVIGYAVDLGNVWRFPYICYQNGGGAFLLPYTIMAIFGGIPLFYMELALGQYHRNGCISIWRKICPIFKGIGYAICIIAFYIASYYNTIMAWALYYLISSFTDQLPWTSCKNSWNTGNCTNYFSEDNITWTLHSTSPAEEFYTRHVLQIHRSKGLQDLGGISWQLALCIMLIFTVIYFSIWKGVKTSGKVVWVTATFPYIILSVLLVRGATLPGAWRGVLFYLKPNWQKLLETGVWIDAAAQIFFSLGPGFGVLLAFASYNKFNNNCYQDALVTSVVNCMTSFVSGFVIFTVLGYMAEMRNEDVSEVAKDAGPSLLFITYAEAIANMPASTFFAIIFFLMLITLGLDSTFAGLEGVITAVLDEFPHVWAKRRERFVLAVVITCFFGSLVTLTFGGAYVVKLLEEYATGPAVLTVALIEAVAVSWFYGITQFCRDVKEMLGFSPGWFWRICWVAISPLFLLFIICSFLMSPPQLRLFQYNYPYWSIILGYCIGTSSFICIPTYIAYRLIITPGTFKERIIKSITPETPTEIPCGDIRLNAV
Description: Inhibition of wild type human SERT expressed in HEK293 cells assessed as inhibition of [3H]-5HT reuptake preincubated for 5 mins followed by [3H]5HT addition and measured after 1 min by liquid scintillation counting analysis

[8] = Cardiotoxicity in human Cor.4U hiPSC-CM cells assessed as early after depolarization at 10 uM measured after 30 mins by FluoVolt dye based fluorescence assay; format: toxicity; conditions: 0.5 h
[9] = Drug level in Sprague-Dawley rat brain at 7.5 mg/kg, ip compound dissolved in 40% Kolliphor-EL in water measured after 3 hrs by LC-MS/MS analysis; format: ADME, organism-based; conditions: read-out: Ct
[10] = target: T1, Sodium-dependent dopamine transporter; assay: Inhibition of human DAT expressed in HEK293 cells preloaded with [3H]-MPP+ assessed as reduction in D-amphetamine-induced tritium efflux at 10 uM treated with compound prior to amphetamine challenge measured every 4 mins by liquid scintillation counting analysis; format: cell-based
[11] = Plasma concentration in Sprague-Dawley rat at 7.5 mg/kg, ip compound dissolved in 40% Kolliphor-EL in water measured after 3 hrs by LC-MS/MS analysis; format: ADME, organism-based
[12] = Cardiotoxicity in human Cor.4U hiPSC-CM cells assessed as effect on action potential duration at 10 uM measured after 30 mins by FluoVolt dye based fluorescence assay; format: toxicity; conditions: 0.5 h
[13] = tested on: Rattus norvegicus; assay: Increase in extracellular dopamine level in Sprague-Dawley rat nucleus accumbens in brain at 1 mg/kg, ip measured after 50 mins by RP-HPLC analysis based microdialysis method; format: functional, organism-based
[14] = target: T1, Sodium-dependent dopamine transporter; assay: Inhibition of human DAT expressed in HEK293 cells preloaded with [3H]-MPP+ assessed as decrease in tritium efflux at 10 uM measured every 4 mins by liquid scintillation counting analysis; format: cell-based
[15] = target: Sodium-dependent noradrenaline transporter (Homo sapiens, UniProt P23975); assay: Inhibition of wild type human NET expressed in HEK293 cells assessed as inhibition of [3H]-MPP+ reuptake preincubated for 5 mins followed by [3H]MPP+ addition and measured after 3 mins by liquid scintillation counting analysis; format: cell-based; conditions: read-out: IC50
Chain of Sodium-dependent noradrenaline transporter (P23975 whole entry): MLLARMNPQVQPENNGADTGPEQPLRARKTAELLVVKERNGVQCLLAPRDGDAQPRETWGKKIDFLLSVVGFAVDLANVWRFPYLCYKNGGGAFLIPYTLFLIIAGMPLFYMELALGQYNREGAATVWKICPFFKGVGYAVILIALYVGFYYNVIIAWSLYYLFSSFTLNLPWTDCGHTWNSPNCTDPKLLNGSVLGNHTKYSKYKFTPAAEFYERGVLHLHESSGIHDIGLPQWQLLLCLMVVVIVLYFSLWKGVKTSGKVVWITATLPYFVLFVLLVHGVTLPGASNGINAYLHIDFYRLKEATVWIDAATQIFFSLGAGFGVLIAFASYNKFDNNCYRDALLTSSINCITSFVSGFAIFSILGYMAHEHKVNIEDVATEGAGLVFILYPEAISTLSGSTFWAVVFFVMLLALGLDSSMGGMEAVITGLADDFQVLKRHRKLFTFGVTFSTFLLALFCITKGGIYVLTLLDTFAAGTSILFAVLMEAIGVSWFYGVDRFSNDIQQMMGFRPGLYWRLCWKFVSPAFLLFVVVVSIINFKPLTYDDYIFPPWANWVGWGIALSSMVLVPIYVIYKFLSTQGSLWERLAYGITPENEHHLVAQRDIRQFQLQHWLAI

[16] = Ratio of IC50 for neurotoxicity against rat cortical neuron assessed as inhibition of neurite total length per neuron by ArrayScan analysis to IC50 for wild type human dopamine transporter expressed in HEK293 cells
[17] = Drug level in Sprague-Dawley rat brain at 7.5 mg/kg, ip compound dissolved in 40% Kolliphor-EL in water measured after 10 hrs by LC-MS/MS analysis; format: ADME, organism-based; conditions: in vivo, BLD = below limit of detection
[18] = Half life in Sprague-Dawley rat at 7.5 mg/kg, ip compound dissolved in 40% Kolliphor-EL in water by LC-MS/MS analysis; format: ADME, organism-based; conditions: in vivo
[19] = Plasma concentration in Sprague-Dawley rat at 7.5 mg/kg, ip compound dissolved in 40% Kolliphor-EL in water measured after 1 hr by LC-MS/MS analysis; format: ADME, organism-based
[20] = Neurotoxicity in rat cortical neuron assessed as inhibition of valid neuron count incubated for 72 hrs by Hoechst 33342 staining based ArrayScan analysis; format: toxicity, cell-based, Cortical neurone; conditions: rat cortical neurons
[21] = Neurotoxicity in rat cortical neuron assessed as inhibition of neurite total length per neuron incubated for 72 hrs by Hoechst 33342 staining based ArrayScan analysis; format: toxicity, cell-based, Cortical neurone; conditions: rat cortical neurons
[22] = target: T1, Sodium-dependent dopamine transporter; assay: Potency index, ratio of modafinil IC50 to compound IC50 for wild type human dopamine transporter expressed in HEK293 cells assessed as inhibition of [3H]dopamine reuptake preincubated for 5 mins followed by [3H]dopamine addition and measured after 1 min by liquid scintillation analysis; format: cell-based
[23] = AUC(0 to infinity) in Sprague-Dawley rat at 7.5 mg/kg, ip compound dissolved in 40% Kolliphor-EL in water by LC-MS/MS analysis; format: ADME, organism-based; set-up: dose 7.5 mg/kg, time infinity, route intraperitoneal; conditions: in vivo
[24] = Ratio of IC50 for neurotoxicity against rat cortical neuron assessed as inhibition of mean neurite average length by ArrayScan analysis to IC50 for wild type human dopamine transporter expressed in HEK293 cells
[25] = Plasma concentration in Sprague-Dawley rat at 7.5 mg/kg, ip compound dissolved in 40% Kolliphor-EL in water measured after 7 hrs by LC-MS/MS analysis; format: ADME, organism-based
[26] = Neurotoxicity in rat cortical neuron assessed as inhibition of neurite outgrowth by measuring mean neurite average length incubated for 72 hrs by Hoechst 33342 staining based ArrayScan analysis; format: toxicity, cell-based, Cortical neurone; conditions: rat cortical neurons
[27] = Drug level in Sprague-Dawley rat brain at 7.5 mg/kg, ip compound dissolved in 40% Kolliphor-EL in water measured after 7 hrs by LC-MS/MS analysis; format: ADME, organism-based; conditions: read-out: Ct
[28] = target: T1, Sodium-dependent dopamine transporter; assay: Potency index, ratio of (R)-modafinil IC50 to compound IC50 for wild type human dopamine transporter expressed in HEK293 cells assessed as inhibition of [3H]dopamine reuptake preincubated for 5 mins followed by [3H]dopamine addition and measured after 1 min by liquid scintillation analysis; format: cell-based

In the case of `[O-][S@@+](Cc1cscn1)[C@@H](c1ccccc1)c1ccc(Br)cc1`, the “Ratio IC50” value [1] is reported as over 100, the concentration at 10 h [2] is reported as 23.8 nM and the Activity [3] is reported as 20%. For the same compound, the Activity [4] was “Non-Toxic”, the concentration at 1 h [5] was 803 nM and the IC50 [6] was 0.65 µM. For the same compound, the IC50 [7] was “Not Active”, the Activity [8] was “Non-Toxic” and the concentration at 3 h [9] was 409 nM. The inhibition [10] was “Active”, the concentration at 3 h [11] was 1210 nM and the Activity [12] was “Non-Toxic”. The Activity [13] was “inactive”, the inhibition [14] was “Active” and the IC50 [15] was 73.3 µM. For the same compound, the “Ratio IC50” value [16] was over 100, the Ct [17] was “Bld” and the half-life [18] was 1.6 h. For the same compound, the concentration at 1 h [19] was 2200 nM, the IC50 at 72 h [20] was over 100 µM and the IC50 at 72 h [21] was over 100 µM. The Ratio IC50 [22] was 20, the AUC(0-inf) [23] was 5.84 µM·h and the “Ratio IC50” value [24] was over 100. The concentration at 7 h [25] was 89.6 nM, the IC50 at 72 h [26] was over 100 µM and the concentration at 7 h [27] was 44.3 nM. For the same compound, the Ratio IC50 [28] was 10.
